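Grown in 96-well plates, cells were treated for 48 hours with each compound at five concentrations. Insufficient inhibition: endpoint recorded as highest concentration tested. GI50 = concentration required for 50% inhibition of growth.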 Active and inactive are the calls of the source. Rule as the data show it: active = GI50 up to about 1.1 µM and inactive = higher.
Legend:
Assay in all cases: NCI-60 cell line screen, 48 h
[1] = test system: SK-OV-3
[2] = test system: KM12
[3] = test system: LOX IMVI
[4] = test system: OVCAR-4
[5] = test system: HCT-116
[6] = test system: Hs-578T
[7] = test system: SNB-19
[8] = test system: CAKI-1
[9] = test system: M14
[10] = test system: SF-295
[11] = test system: BT-549
[12] = test system: K562
[13] = test system: UACC-257
[14] = test system: 786-0
[15] = test system: A498
[16] = test system: SN12C
[17] = test system: HOP-62
[18] = test system: SR

SMILES | GI50 [1] | GI50 [2] | GI50 [3] | GI50 [4] | GI50 [5] | GI50 [6] | GI50 [7] | GI50 [8] | GI50 [9] | GI50 [10] | GI50 [11] | GI50 [12] | GI50 [13] | GI50 [14] | GI50 [15] | GI50 [16] | GI50 [17] | GI50 [18]
CC(NC(=O)OCc1ccccc1)NC(=O)C(CC(=O)OC(C)(C)C)NC(=O)OC(C)(C)C (stereo unspecified) | > 100 µM (inactive) | > 100 µM (inactive) | > 100 µM (inactive) | > 100 µM (inactive) | > 100 µM (inactive) | > 100 µM (inactive) | > 100 µM (inactive) | > 100 µM (inactive) | > 100 µM (inactive) | > 100 µM (inactive) | > 100 µM (inactive) | > 100 µM (inactive) | > 100 µM (inactive) | > 100 µM (inactive) | > 100 µM (inactive) | > 100 µM (inactive) | > 100 µM (inactive) | –
C1=C[C@]2(CCC13OCCO3)COc1ccccc12 | 53.2 µM (inactive) | 26.3 µM (inactive) | 21.5 µM (inactive) | 47 µM (inactive) | 37.1 µM (inactive) | – | 38 µM (inactive) | > 100 µM (inactive) | 26.6 µM (inactive) | 43.1 µM (inactive) | – | 11.9 µM (inactive) | 43.1 µM (inactive) | 54.3 µM (inactive) | > 100 µM (inactive) | 74.8 µM (inactive) | 41.2 µM (inactive) | 29.9 µM (inactive)
OCC(O)C1OC2CC1Nc1ccccc1N2 (stereo unspecified) | > 100 µM (inactive) | > 100 µM (inactive) | > 100 µM (inactive) | – | > 100 µM (inactive) | > 100 µM (inactive) | > 100 µM (inactive) | > 100 µM (inactive) | – | > 100 µM (inactive) | – | > 100 µM (inactive) | > 100 µM (inactive) | > 100 µM (inactive) | 8.85 µM (inactive) | > 100 µM (inactive) | > 100 µM (inactive) | > 10 µM (inactive)
CN(C)C1(N(C)C)Oc2c(c(=O)n(C)c(=O)n2C)C(c2ccc(Br)cc2)C1(F)F (stereo unspecified) | > 100 µM (inactive) | > 100 µM (inactive) | > 100 µM (inactive) | > 100 µM (inactive) | > 100 µM (inactive) | – | > 100 µM (inactive) | > 100 µM (inactive) | > 100 µM (inactive) | > 100 µM (inactive) | > 100 µM (inactive) | – | > 100 µM (inactive) | > 100 µM (inactive) | > 100 µM (inactive) | – | > 100 µM (inactive) | –
C=C1CC(C)(c2cccc(Nc3nc4ccccc4c4occc34)c2)OC1=O (stereo unspecified) | 13.7 µM (inactive) | 5.08 µM (inactive) | 1.99 µM (inactive) | 7.89 µM (inactive) | 1.67 µM (inactive) | 3.25 µM (inactive) | 17.2 µM (inactive) | 3.98 µM (inactive) | 2.84 µM (inactive) | 16.8 µM (inactive) | 4.85 µM (inactive) | – | 0.0218 µM (active) | 1.67 µM (inactive) | 17.7 µM (inactive) | 2.83 µM (inactive) | 12.2 µM (inactive) | –
C/C(=N\NC(=O)c1ccncc1)c1ccccc1F | > 10 µM (inactive) | > 10 µM (inactive) | > 10 µM (inactive) | – | > 10 µM (inactive) | – | > 10 µM (inactive) | > 10 µM (inactive) | > 10 µM (inactive) | > 10 µM (inactive) | – | > 10 µM (inactive) | – | > 10 µM (inactive) | > 10 µM (inactive) | > 10 µM (inactive) | > 10 µM (inactive) | > 10 µM (inactive)
NC1=NC(=O)[C@H](Cc2c[nH]c3ccccc23)N1C(=O)OCc1ccccc1 | – | > 100 µM (inactive) | 68.5 µM (inactive) | 51.8 µM (inactive) | 57.9 µM (inactive) | 44.9 µM (inactive) | > 100 µM (inactive) | > 100 µM (inactive) | – | 75.3 µM (inactive) | 38.5 µM (inactive) | 30.8 µM (inactive) | 49.3 µM (inactive) | > 100 µM (inactive) | 61 µM (inactive) | 91 µM (inactive) | > 100 µM (inactive) | –
CC1Cc2cc(O)c(O)cc2-c2cc(O)c(O)cc2CC1C (stereo unspecified) | 36.8 µM (inactive) | 4.48 µM (inactive) | 10.2 µM (inactive) | 15.6 µM (inactive) | 17.9 µM (inactive) | 9.04 µM (inactive) | 26.5 µM (inactive) | 17.8 µM (inactive) | 11.5 µM (inactive) | 4.41 µM (inactive) | – | 12.8 µM (inactive) | 12.3 µM (inactive) | 14.3 µM (inactive) | 25 µM (inactive) | 20.9 µM (inactive) | 17.9 µM (inactive) | 4.85 µM (inactive)
Cn1nc2ccc3nccc(N4CCN(CCO)CC4)c3c2n1 | > 100 µM (inactive) | > 100 µM (inactive) | 0.371 µM (active) | > 100 µM (inactive) | > 100 µM (inactive) | > 100 µM (inactive) | > 100 µM (inactive) | – | > 100 µM (inactive) | > 100 µM (inactive) | > 100 µM (inactive) | 58.6 µM (inactive) | > 100 µM (inactive) | > 100 µM (inactive) | > 100 µM (inactive) | > 100 µM (inactive) | > 100 µM (inactive) | –
CCOC(=O)C1C(c2ccccc2)C2(C#N)C(=N)OC1(C)C2(C#N)C#N (stereo unspecified) | > 100 µM (inactive) | > 10 µM (inactive) | 16 µM (inactive) | – | 16.3 µM (inactive) | 29.5 µM (inactive) | 40.6 µM (inactive) | 6.61 µM (inactive) | 40.6 µM (inactive) | 36.2 µM (inactive) | – | 19.8 µM (inactive) | 20.5 µM (inactive) | 13.6 µM (inactive) | 32.7 µM (inactive) | > 10 µM (inactive) | – | –
COC(=O)C1CCC(=O)N1C(c1cc(OC)c(OC)c(OC)c1)c1cc(OC)c(OC)c(OC)c1 (stereo unspecified) | > 100 µM (inactive) | > 100 µM (inactive) | > 100 µM (inactive) | – | > 100 µM (inactive) | > 100 µM (inactive) | > 100 µM (inactive) | – | > 100 µM (inactive) | > 100 µM (inactive) | – | > 100 µM (inactive) | > 100 µM (inactive) | > 100 µM (inactive) | > 100 µM (inactive) | > 100 µM (inactive) | > 100 µM (inactive) | > 100 µM (inactive)
O=C1C=CC(=O)c2c1ccc1c3ccccc3n(Cc3ccc([N+](=O)[O-])cc3)c21 | > 100 µM (inactive) | > 100 µM (inactive) | – | > 100 µM (inactive) | > 100 µM (inactive) | – | > 100 µM (inactive) | > 100 µM (inactive) | > 100 µM (inactive) | > 100 µM (inactive) | > 100 µM (inactive) | 19.7 µM (inactive) | > 100 µM (inactive) | > 100 µM (inactive) | – | > 100 µM (inactive) | > 100 µM (inactive) | 13.8 µM (inactive)
CC(C)C1=CC23CCC4C(C)(C(=O)O)CCCC4(C)C2CC1C1C(=O)N(c2cccc(N4C(=O)C5C6CC7C8(C)CCCC(C)(C(=O)O)C8CCC7(C=C6C(C)C)C5C4=O)c2)C(=O)C13 (stereo unspecified) | – | 2.75 µM (inactive) | – | 24 µM (inactive) | 9.57 µM (inactive) | 3.77 µM (inactive) | 3.02 µM (inactive) | – | 11.6 µM (inactive) | – | – | 7.87 µM (inactive) | – | 32 µM (inactive) | 13.4 µM (inactive) | 13.3 µM (inactive) | 12 µM (inactive) | 9.55 µM (inactive)
c1cc2c(c(-c3c4ccccc4nc4ccccc34)c1)CC1(CC2)OCCO1 | > 100 µM (inactive) | > 100 µM (inactive) | > 100 µM (inactive) | > 100 µM (inactive) | > 100 µM (inactive) | – | > 100 µM (inactive) | > 100 µM (inactive) | > 100 µM (inactive) | > 100 µM (inactive) | > 100 µM (inactive) | > 100 µM (inactive) | > 100 µM (inactive) | > 100 µM (inactive) | > 100 µM (inactive) | > 100 µM (inactive) | > 100 µM (inactive) | –
CC1=C(OC2OC(CO)C(O)C(O)C2O)C(=O)C[C@H]2C1=CC[C@@H]1[C@@]2(C)C(=O)C[C@]2(C)[C@@H]([C@@](C)(O)C(=O)CCC(C)(C)O)[C@H](O)C[C@@]12C (stereo partly specified) | > 100 µM (inactive) | > 100 µM (inactive) | > 100 µM (inactive) | > 100 µM (inactive) | > 100 µM (inactive) | – | > 100 µM (inactive) | > 100 µM (inactive) | > 100 µM (inactive) | > 100 µM (inactive) | > 100 µM (inactive) | > 100 µM (inactive) | > 100 µM (inactive) | > 100 µM (inactive) | > 100 µM (inactive) | > 100 µM (inactive) | > 100 µM (inactive) | > 100 µM (inactive)
CN1CCN(C2CC(=O)c3c(Cl)sc(Cl)c32)CC1 (stereo unspecified) | > 54.6 µM (inactive) | 10.8 µM (inactive) | 1.8 µM (inactive) | 14.6 µM (inactive) | 6.92 µM (inactive) | – | 30.7 µM (inactive) | 21.8 µM (inactive) | 6.82 µM (inactive) | 21.4 µM (inactive) | 20.3 µM (inactive) | 4.06 µM (inactive) | 27.1 µM (inactive) | 7.21 µM (inactive) | 43.2 µM (inactive) | 13.2 µM (inactive) | 19 µM (inactive) | 4 µM (inactive)
O=[N+]([O-])c1ccc2nc3ccccc3cc2c1 | 4.21 µM (inactive) | – | 2.04 µM (inactive) | 2.48 µM (inactive) | 1.65 µM (inactive) | 3.21 µM (inactive) | 2.99 µM (inactive) | 0.0149 µM (active) | 3.33 µM (inactive) | – | 4.05 µM (inactive) | 0.0782 µM (active) | 1.34 µM (inactive) | 2.38 µM (inactive) | 1.5 µM (inactive) | 1.96 µM (inactive) | 2.26 µM (inactive) | –

— ChEMBL document CHEMBL1201862, “PubChem BioAssay data set” (2004)
